Test results as given in US20120196057A1 (priority 2008, published 2012).
“Also recorded” adds a separate entry of the source.

What was measured:
[1] = ingestion of 250 μg/day as a dietary supplement; cited from earlier work
[2] = Clinical trial: plasma 25-OH D after single oral bolus of 25-OH D3, Vitamin D3 or both; format: in vivo, human; conditions: single oral bolus 140 μg (combo 140 μg + 140 μg)
Source text: Each group included five subjects. They are followed for four months in Zurich, Switzerland during the winter.
Equal quantities of both substances were investigated. […] As the maximum pre-existing baseline concentration of 25-OH D will be 50 nmol/L, it is not anticipated that subjects will approach the range where disturbance in Ca^2+ homeostasis has been observed.
Each dosage is consumed orally at breakfast. The duration of the study is four months for the “Daily” and “Weekly” groups. Subjects enrolled in the “Bolus” group consume orally a single dosage at the second study visit and are further followed-up for four months.

gastrocnemius muscle = test: Gene chip analysis in hindlimb unloading (tail suspension) skeletal muscle atrophy model; format: in vivo, BalbC mice; conditions: for Differentially expressed probe sets for genes between HU and HU + treatment group: 50 μg/kg/bw (combo 50+50) by gavage twice, 7 days hindlimb unloading, Affymetrix Mouse 430-2; for Expression of Myosin, light chain kinase (Mylk) / Expression of Tropomyosin 1 (Tpm1) / Expression of Titin (Tnt) / Expression of Myomesin 1 (Myom 1) / Number of differentially expressed probe sets also differentially expressed in 25-OH D3+Vitamin D3 group / Share of differentially expressed probe sets also differentially expressed in 25-OH D3+Vitamin D3 group: gastrocnemius muscle; for Expression of Myosin, light chain kinase (Mylk): HU control 749; for Expression of Tropomyosin 1 (Tpm1): HU control 1179; for Expression of Titin (Tnt): HU control 11353; for Expression of Myomesin 1 (Myom 1): HU control 84697; for Differentially expressed muscle genes compared to HU: selected skeletal muscle genes, list wrapped over table lines; for Number of differentially expressed probe sets also differentially expressed in 25-OH D3+Vitamin D3 group / Share of differentially expressed probe sets also differentially expressed in 25-OH D3+Vitamin D3 group: vs HU control
Source text: Initially this model was established in rats for simulating spaceflight in humans and is commonly used in other scientific fields to study the loss of skeletal muscle mass or bone. The results are considered indicative of human conditions such as sarcopenia (degenerative loss of skeletal muscle mass and strength during the process of ageing) or immobilization of skeletal muscle (e.g. after prolonged bed rest due to fractures, surgery or trauma). Methods For our study, nine month old BalbC female mice were randomized at the beginning of the study into four groups with 10 animals per group • 1. […] The animals were placed in special cages for duration of seven days; all mice were housed separately and had free access to feed and water ad libidum. All animals were treated twice by gavage at the beginning of the experiment and 3 hours before the section: 1. the control group received vehicle (gelatine) […] At the end of the study the gastrocnemius muscle was taken out and directly frozen in liquid nitrogen for further analysis. […] Total RNA was isolated using the commonly used Trizol protocol. The RNA was quantified by using spectrophotometric analysis. The integrity of total RNA samples was also assessed qualitatively on an Agilent 2100 Bioanalyzer. RNA was then prepared for the one cycle cDNA synthesis. A poly-A RNA control is used for this step to provide exogenous positive controls to monitor the entire eukaryotic target labelling process. The first cDNA synthesis is done, and after the second strand cDNA synthesis the cDNA is cleaned up of double-stranded cDNA. A biotin labelled cRNA is then synthesised, cleaned up and quantified using a spectrophotometer at 260/280 nm. It is important that cRNA target is fragmented before hybridization onto a GeneChip probe arrays to obtain optimal assay sensitivity. After fragmentation the probes are hybridized on the chips (Affymetrix Mouse 430-2 chips). The chips are washed and stained in the fluidics station of Affymetrix and scanned in the gene chip scanner. The data is then transferred from the scanner for further analysis using software from Genedata (Expressionist 5.0: […] Analyst). Data interpretation and pathway analysis was done with the online version of the GeneGo Metacore package ([…] evaluates microarray data for quality issues and flags problematic measurements. It provides a set of normalization algorithms and validated condensing methods to automatically pre-process and summarize raw microarray data for subsequent statistical analysis.

| Compound | Blood concentration of 25-hydroxyvitamin D resulting from ingestion [1] | Time period with increase in plasma 25-OH D levels by at least 30 nmol/L [2] | Differentially expressed probe sets for genes between HU and HU + treatment group (gastrocnemius muscle) | Expression of Myosin, light chain kinase (Mylk) (gastrocnemius muscle) | Expression of Tropomyosin 1 (Tpm1) (gastrocnemius muscle) | Expression of Titin (Tnt) (gastrocnemius muscle) | Expression of Myomesin 1 (Myom 1) (gastrocnemius muscle) | Differentially expressed muscle genes compared to HU (gastrocnemius muscle) | Number of differentially expressed probe sets also differentially expressed in 25-OH D3+Vitamin D3 group (gastrocnemius muscle) | Share of differentially expressed probe sets also differentially expressed in 25-OH D3+Vitamin D3 group (gastrocnemius muscle) [%] |
| --- | --- | --- | --- | --- | --- | --- | --- | --- | --- | --- |
| Vitamin D | about 200 nmol/L | no increase of that magnitude |  |  |  |  |  |  |  |  |
| C=C1CC[C@H](O)C/C1=C/C=C1\CCC[C@]2(C)[C@@H]([C@H](C)CCCC(C)(C)O)CC[C@@H]12 [25-OH D3, 25-hydroxyvitamin D3] |  | 4 to 49 h | 1263 | 994 | 2110 | 13786 | 105393 | alkali, smooth muscle and non-muscle; myosin, light; also recorded: polypeptide kinase; myotubularin related protein 2;; also recorded: myotubularin related protein 4; myotubularin related; also recorded: protein 6; tropomyosin 2, beta; X-linked myotubular; also recorded: myopathy gene 1; also recorded: Desmin; dystonin; myocyte enhancer factor 2A;; also recorded: myoneurin; myosin VIIb; myosin, light polypeptide 6, | 769 | ~61 |
| C=C1CC[C@H](O)C/C1=C/C=C1\CCC[C@]2(C)[C@@H]([C@H](C)CCCC(C)C)CC[C@@H]12 [Vitamin D3, cholecalciferol] |  |  | 385 | 786 | 2199 | 11354 | 99099 | Desmin; myoneurin; tropomyosin 1, alpha; tropomyosin 2,; also recorded: beta; X-linked myotubular myopathy gene 1 | 177 | ~46 |
